Source: US20140057940A1, “Methods for Treating or Preventing Cardiac and Neurological Disorders Using Chemokine Receptor Antagonists” (priority 2011, published 2014)

Key:
SIV-infected macaques = details: echocardiography, FIG. 7
[1] = tested on: SIV/17E-Fr and SIV/DeltaB670; assay: SIV-infected rhesus macaques: survival, CD4+ cell count and viral loads; format: in vivo
Description: Twenty-two adult rhesus macaques (mean age=11 years) pre-screened for SIV, STLV-1, and simian type D retrovirus were inoculated intravenously with the macrophagetropic clone SIV/17E-Fr and the immunosuppressive swarm SIV/DeltaB670 (FIG. 3). Age-matched adult rhesus macaques (mean age=11 years) were inoculated with media alone as controls. […] At euthanasia, all animals were perfused with saline to remove blood from the systemic vasculature. Hearts were immediately harvested and samples were immersion fixed in Streck Tissue Fixative (Streck, Omaha, Nebr.) or flash frozen.

[2] = tested on: isolated macaque cardiomyocytes; assay: Calcium transient amplitude in isolated cardiomyocytes; format: cell-based; details: FIG. 1E, ANOVA P=0.72
[3] = tested on: isolated macaque cardiomyocytes; assay: Sarcomeric contraction of field-stimulated (1 Hz) isolated single cardiomyocytes; format: cell-based
Description: In addition to SIV, the chemokines CCL3, CCL4, and CCL5 can also bind to CCR5 and initiate signaling pathways. In order to evaluate the ability of CCL5 to alter sarcomeric contraction in a CCR5-dependent manner, isolated single cardiomyocytes were field stimulated (1 Hz) and sarcomeric contraction measured over time.

[4] = tested on: CD68+ macrophages and CD163 expression in the myocardium; assay: Immunostaining for macrophage markers CD68 and CD163 in myocardium; format: in vivo, rhesus macaques; details: SIV-infected macaques, FIG. 8
Description: To characterize the mononuclear cell populations in myocardium, sections were immunostained for the macrophage marker CD68 and measured by quantitative image analysis. In uninfected animals, CD68+ immunostaining localized to single, round cells located diffusely throughout the myocardium with increased numbers around vessels, consistent with resident macrophages. In SIV-infected animals, CD68+macrophages in perivascular areas were more prominent, likely reflecting recruited, infiltrating macrophages. […] Myocardium was also immunostained for the macrophage marker CD 163. […] In control animals, spindle shaped CD163+ cells were present diffusely throughout the myocardium occasionally forming small clusters. In SIV-infected macaques, cells were similarly spindle shaped to stellate with more extensive cellular processes. […] Myocardial CD163 immunostaining was highly correlated with CD68 immunostaining.

[5] = tested on: SIV/17E-Fr and SIV/DeltaB670; assay: SIV RNA levels in plasma, CSF, spleen and brain by qRT-PCR; format: in vivo, rhesus macaques; details: 200 mg PO BID from day 24 to day 180 post-inoculation
Experimental: (§1) To determine whether the CCR5 antagonist maraviroc altered CNS disease progression, SIV-infected animals from were treated with maraviroc and CNS outcomes were compared with untreated SIV-infected animals. Specifically, six rhesus macaques were inoculated with SIV/17E-Fr and SIV/DeltaB670 and treated with maraviroc (200 mg PO BID) beginning 24 days post-inoculation until the study endpoint 180 days postinoculation, 22 SIV-infected animals served as untreated, SIV-infected controls, and 8 additional animals served as untreated, uninfected controls (Example 2). Maraviroc levels in plasma and CSF were measured using liquid chromatography tandem mass spectrometry. SIV RNA levels in plasma, CSF, spleen, and brain were measured by qRT-PCR. Immunostaining for CD68 and amyloid precursor protein (APP) in the brain was measured by digital image analysis. Group comparisons were performed by the Mann-Whitney test.

[6] = tested on: CD68 and amyloid precursor protein (APP) in the brain; assay: Immunostaining for CD68 and amyloid precursor protein (APP) in the brain; format: in vivo, rhesus macaques; details: 200 mg PO BID
Experimental: as §1

[7] = SIV-infected macaques, 40 mg/kg orally twice per day
[8] = versus untreated SIV-infected macaques

For “4,4-difluoro-N-{(1S)-3-[exo-3-(3-isopropyl-5-methyl-4H-1,2,4-triazol-4-yl)-8-azabicyclo[3.2.1]oct-8-yl]-1-phenylpropyl}cyclohexanecarboxamide [maraviroc]”, the “mitral inflow parameters consistent with diastolic dysfunction with impaired relaxation” value (SIV-infected macaques) was “significantly ameliorated”, the “outcomes (CSF, plasma, spleen, heart viral load) versus rapid (RP) and long term progression (LTP) groups” value ([1]; FIG. 6, LTP over 180 days post-SIV inoculation) was “improves outcomes in both RP and LTP groups” and the “CD4+ cell counts” value [1, 7] was “increased”. For the same molecule, the “survival relative to the untreated cohort” value [1, 7] was “significantly increased”, the “viral load in CSF” value [1, 7] was “reduced” and the “viral load in heart” value [1, 7] was “reduced”. For the same molecule, the “viral load in plasma” value [1, 7] was “reduced”, the “viral load in spleen” value [1, 7] was “reduced” and the calcium transient amplitude ([2]; RANTES+MVC treatment) was “not altered”. For the same molecule, the “effect on the induced reduction in sarcomeric contraction” value ([3]; addition after CCL5, FIG. 1A-1C) was “reversed”, the “difference in shortening between baseline and treatment” value ([3]; after CCL5, P=0.72) was “no significant difference” and the “effect on the CCL5-induced decrease in sarcomeric shortening” value ([3]; subsequent addition in the same cells, FIG. 1D) was “modulated the CCL5 effect towards basal contraction”. The “CD68+ macrophage level in myocardium” value [4] was “do not change”, the “CD163 expression by macrophages in myocardium” value [4] was “lowered to levels present in uninfected and untreated subjects” and the “SIV RNA levels in spleen” value [5] was “reduced”. For the same molecule, the plasma viral load [5] was “reduced”, the “SIV RNA levels in CSF” value [5, 8] was “significantly lower” and the “SIV RNA levels in brain” value [5, 8] was “significantly lower”. The “CNS macrophage activation represented by CD68 immunostaining” value ([6]; P<0.001, FIG. 10) was “lowered” and the “axonal APP immunostaining” value ([6]; P=0.003, FIG. 10) was “lowered”.

B1: CCL5: specific chemokine ligand that can bind to CCR5 and initiate signaling pathways (protein, UniProt P13501 24-91, looked up)
C-C motif chemokine 5: SPYSSDTTPCCFAYIARPLPRAHIKEYFYTSGKCSNPAVVFVTRKNRQVCANPEKKWVREYINSLEMS
With B1 the calcium transient amplitude ([2]; RANTES treatment) was “not altered”, the sarcomeric shortening ([3]; 14 VCM, mean of 20 contraction cycles/cell at steady state, FIG. 1D, p<0.001) was “significantly decreased” and the “mean % decline in contraction from baseline contraction length” value ([3]; isolated macaque cardiomyocytes, FIG. 1C, P=0.009) was 22%.
